Structures are written as SMILES.

Consider 2 compounds from paper PMC6680932, “Structure–Antioxidant–Antiproliferative Activity Relationships of Natural C7 and C7–C8 Hydroxylated Flavones and Flavanones” (Antioxidants, 2019).

Series [1] concerns MV-4-11 (biphenotypic B myelomonocytic leukemia). Description: Antiproliferative activity in vitro, MTT assay. The following applies: Homo sapiens, MV4-11, 72 h exposure, read-out: IC50 ± SD MV-4-11. The class given is cell-based, human. (Formazan colour is commonly taken as a measure of viable cells.)
The test system of another series is MCF 10A (breast cells). In words: Antiproliferative activity in vitro, SRB assay. The class given is cell-based, human. The following applies: Homo sapiens, MCF-10A; 72 h exposure, SRB; normal cell line; read-out: IC50 ± SD MCF 10A.
The next series relates to MCF7 (breast carcinoma). Description: Antiproliferative activity in vitro, SRB assay. The class given is cell-based, human. The following applies: Homo sapiens, MCF7; 72 h exposure, SRB; read-out: IC50 ± SD MCF7. In general terms: Sulforhodamine B stains cellular protein and so reports cell mass.
Series [2] has as its system LoVo/DX (colon cancer doxorubicin-resistant). Description: Antiproliferative activity in vitro, SRB assay. The class given is cell-based, human. The following applies: Homo sapiens, LoVo/DX, 72 h exposure, read-out: IC50 ± SD LoVo/DX.
The nature of series [3]: Stability of flavonoids in culture media without cells (control), HPLC. The class given is physicochemical. To be noted: HLMEC and MCF7 culture media not containing cells, 3 h. As to the method:
Flavonoids dissolved (as described in Section 2.4) were added to the HLMEC and MCF7 line cultures, and the final concentration was 100 μg/mL. The cultures were incubated in 96-well plates for 3 h and transferred to microtubes containing 400 µL of cold methanol (−20 °C) and kept at −20 °C for 1 h. After centrifugation at 12,000× g for 10 min, samples were analyzed by HPLC. To determine the stability of flavonoids in HLMEC and MCF7 culture media (not containing cells) under analogous conditions, control experiments were also carried out.

As for `O=C1C[C@@H](c2ccc(O)cc2)Oc2cc(O)cc(O)c21` [Compound 6, naringenin], the IC50 was 146 ± 19.1 µM in series [1], 185 ± 23.2 µM with MCF 10A (breast cells), 215 ± 32.3 µM in the series with MCF7 (breast carcinoma) and 129 ± 9.74 µM in series [2]. In addition, the “compound remaining in culture media without cells” value in series [3] was “over 98%”.

In the case of `O=c1cc(-c2ccc(O)cc2)oc2cc(O)cc(O)c12` [Compound 2, apigenin], the IC50 came to 8.18 ± 2.76 µM in series [1], 35.7 ± 11.9 µM in the series on MCF 10A (breast cells), 22.5 ± 1.29 µM in the series with MCF7 (breast carcinoma) and 11.6 ± 1.35 µM in series [2]. In series [3], the “compound remaining in culture media without cells” value is recorded as “over 98%”.
